From ChEMBL document CHEMBL1131780 (Bioorg Med Chem Lett, 1999) come the findings set out here.

Numbering of substitutions follows the chain as printed. pEC50, pKi: −log10 of the molar value.

In data set [1] the target is T1, Muscarinic acetylcholine receptor M1 (Homo sapiens) (UniProt P11229).
T1 sequence (whole entry): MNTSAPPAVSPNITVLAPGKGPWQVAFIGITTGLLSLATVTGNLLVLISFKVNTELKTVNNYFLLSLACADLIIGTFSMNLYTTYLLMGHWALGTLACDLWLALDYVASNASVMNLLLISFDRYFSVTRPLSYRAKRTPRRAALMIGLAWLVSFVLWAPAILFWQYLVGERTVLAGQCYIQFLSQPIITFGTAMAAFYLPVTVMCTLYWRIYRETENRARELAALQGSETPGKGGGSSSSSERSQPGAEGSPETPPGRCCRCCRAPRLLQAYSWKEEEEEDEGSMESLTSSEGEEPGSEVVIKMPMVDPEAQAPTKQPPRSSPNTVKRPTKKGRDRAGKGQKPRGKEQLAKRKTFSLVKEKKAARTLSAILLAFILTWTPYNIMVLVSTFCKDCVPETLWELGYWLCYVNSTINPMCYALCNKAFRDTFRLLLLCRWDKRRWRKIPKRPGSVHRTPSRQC
As to the kind of experiment: Efficacy expressed as PI (percentage of carbachol) against human M1 receptor expressed in CHO cells. Format: functional, cell-based.

Data set [2] has as its target T2, Muscarinic acetylcholine receptor M1 (Homo sapiens, UniProt P11229).
T2 sequence (P11229 whole entry): T1 sequence (whole entry)
As to the kind of experiment: Affinity towards human M1 receptor expressed in CHO cells using [3H]QNB as radioligand. Format: cell-based.

Data set [3] has as its target T3, Muscarinic acetylcholine receptor M1 (Rattus norvegicus, UniProt P08482).
T3 sequence (P08482 whole entry): T1 sequence (whole entry) with A5V, T254S, P309S, R320K, A337G, I413V
As to the kind of experiment: Binding affinity against M1 receptor was determined by displacing [3H]OXO-M in rat cortical homogenate.

The test system of data set [4] is Rattus norvegicus. Nature of the data set: Compound was evaluated in vivo for cognitive impairment reduction in AF64-impaired RAM, rat administered subcutaneously. Format: functional. The following applies: sc, read-out: MED.
The target in data set [5] is T4, Muscarinic acetylcholine receptor M2 (Homo sapiens, UniProt P08172).
T4 sequence (P08172 whole entry): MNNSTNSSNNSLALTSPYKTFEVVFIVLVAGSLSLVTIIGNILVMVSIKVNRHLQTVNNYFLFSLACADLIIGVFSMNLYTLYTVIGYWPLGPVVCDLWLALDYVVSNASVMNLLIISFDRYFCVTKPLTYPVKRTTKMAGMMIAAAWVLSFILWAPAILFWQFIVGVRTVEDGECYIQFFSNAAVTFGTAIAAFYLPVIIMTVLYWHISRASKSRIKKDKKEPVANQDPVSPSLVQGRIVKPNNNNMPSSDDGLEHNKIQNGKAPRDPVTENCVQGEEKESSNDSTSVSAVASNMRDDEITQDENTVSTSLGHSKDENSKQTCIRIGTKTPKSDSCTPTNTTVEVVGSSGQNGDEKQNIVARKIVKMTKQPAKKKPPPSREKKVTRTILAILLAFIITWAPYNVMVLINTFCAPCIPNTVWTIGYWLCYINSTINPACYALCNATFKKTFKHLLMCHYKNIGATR
As to the kind of experiment: Binding affinity towards human muscarinic M2 receptor.

Data set [6] concerns the target T5, Muscarinic acetylcholine receptor M3 (Homo sapiens, UniProt P20309). As to the kind of experiment: In vitro functional agonism against M3 muscarinic receptor (PI).
For data set [7], the target named is T5, Muscarinic acetylcholine receptor M3. As to the kind of experiment: Binding affinity towards human muscarinic M3 receptor.
In data set [8] the test system is Monkey. As to the kind of experiment: In vivo cognitive assessment after oral administration of WAY-132983 in primates (Rhesus and cynomolgus monkeys) using pre-trained aged subjects (short delay). The class given is functional. The following applies: Cercopithecidae, read-out: MED.
Data set [9] deals with T4, Muscarinic acetylcholine receptor M2. As to the kind of experiment: In vitro functional agonism against M2 muscarinic receptor (cAMP).
The target in data set [10] is T2, Muscarinic acetylcholine receptor M1. As to the kind of experiment: In vitro functional agonism against M1 muscarinic receptor (PI).
Data set [11] in a line: Compound was evaluated for half-life in human liver microsomes. The class given is ADME, Microsome.
For data set [12], the system named is Monkey. As to the kind of experiment: In vivo cognitive assessment after oral administration of WAY-132983 in primates (Rhesus and cynomolgus monkeys) using pre-trained aged subjects (long delay). Format: functional. The following applies: Cercopithecidae, read-out: MED.
The nature of data set [13]: Compound was evaluated in vivo for lethal dose in rats. Format: ADME, organism-based. The settings on record: rat.
For data set [14], the target named is T1, Muscarinic acetylcholine receptor M1 (Homo sapiens).
Description: Effective dose against affinity towards human muscarinic M1 receptor
The target in data set [15] is T6, Muscarinic acetylcholine receptor M2 (Homo sapiens) (UniProt P08172).
T6 sequence (whole entry): T4 sequence (P08172 whole entry)
Nature of the data set: Effective dose against affinity towards human muscarinic M2 receptor. Format: functional.

The species named for data set [16] is Rattus norvegicus. Nature of the data set: Compound was evaluated for minimum effective dose in the rat radial arm maze model. Format: functional. The following applies: read-out: MED.

T5 sequence (P20309 whole entry): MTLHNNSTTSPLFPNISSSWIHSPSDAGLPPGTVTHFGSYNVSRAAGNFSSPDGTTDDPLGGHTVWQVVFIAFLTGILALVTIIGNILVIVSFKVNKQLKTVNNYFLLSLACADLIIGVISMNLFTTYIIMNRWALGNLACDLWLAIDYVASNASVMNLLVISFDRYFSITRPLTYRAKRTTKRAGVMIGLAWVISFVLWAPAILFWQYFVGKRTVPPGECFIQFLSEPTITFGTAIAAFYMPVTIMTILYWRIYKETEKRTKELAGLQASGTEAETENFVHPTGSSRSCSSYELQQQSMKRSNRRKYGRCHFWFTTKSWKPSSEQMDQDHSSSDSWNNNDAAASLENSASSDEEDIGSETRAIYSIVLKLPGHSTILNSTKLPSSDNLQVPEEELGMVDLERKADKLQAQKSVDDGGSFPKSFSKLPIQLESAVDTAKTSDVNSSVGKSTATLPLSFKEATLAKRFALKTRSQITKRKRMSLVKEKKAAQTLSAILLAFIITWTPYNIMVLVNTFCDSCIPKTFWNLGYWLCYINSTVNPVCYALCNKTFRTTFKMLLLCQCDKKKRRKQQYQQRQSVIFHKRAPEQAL

Regarding `CCCCCCOc1nccnc1SC1CN2CCC1C2` (stereo not given), in data set [1], the PI was determined as 42%.

In the case of `CCCCCCSc1nccnc1OC1CN2CCC1C2` (stereo in doubt; 4) [listing 1 of 2 here], in [1], the PI came to 85%.

`CCCCCCOc1nccnc1O[C@@H]1CN2CCC1C2` (stereo in doubt; 12) [listing 1 of 2 here]: the PI in data set [1] was found to be 9%.

For `CCCCCCOc1nccnc1O[C@@H]1CN2CCC1C2` (stereo in doubt; 6), the pKi in data set [2] was 7.85.

`CCCCCCSc1cncc(OC2CN3CCC2C3)n1` (stereo not given) had a pKi in [2] of 7.66. This compound also registered a PI in [1] of 2%.

Turning to `CCCCCCSc1nccnc1O[C@H]1CN2CCC1C2.Cl` (stereo not given in full), the pKi was 9.40 in data set [3], 8.47 in [5], 8.70 in data set [2] and 8.23 in data set [7]. The minimal effective dose turned out to be 0.03 mg/kg in data set [4], 0.03 mg/kg in [8] and 0.01 mg/kg in [12]. Also, the pEC50 in [6] was 8.43; in [9], 8.10; in data set [10], 8.96. In addition, in data set [11], the half-life amounted to 1.88 h.

`CCCCCCSc1nccnc1OC1CN2CCC1C2` (stereo in doubt; 4) [listing 2 of 2 here]: in data set [2], the pKi is 8.15.

`c1cnc(O[C@@H]2CN3CCC2C3)cn1` (stereo in doubt; 1) [listing 1 of 2 here]: the negative-log Ki (pKi) in [5] is 7.40; in data set [2], 5.25. The compound also yielded an LD50 in [13] of 30 mg/kg.

Regarding `CCCCCCSc1nccnc1O[C@@H]1CN2CCC1C2` (stereo not given in full), the pKi in [2] was 7.12. This compound also returned a PI in data set [1] of 107%.

In the case of `CCCCCCOc1nccnc1OC1CN2CCC1C2` (stereo not given), the ED50 in [14] was 1.4 nM; in data set [15] it was 600 nM. This compound gave a pKi in [5] of 7.70. The compound also came in with a PI in data set [1] of 88%.

In turn, `CCCCCCSc1nccnc1OC1CN2CCC1C2` (stereo in doubt; 8) came in with a PI in [1] of 104%.

As to `CCCCCCSc1nccnc1O[C@H]1CN2CCC1C2` (stereo not given in full), in data set [2], the pKi is 6.91.

`CCCCCCSc1nccnc1SC1CN2CCC1C2` (stereo not given) showed a PI in data set [1] of 62%.

`c1cnc(O[C@@H]2CN3CCC2C3)cn1` (stereo in doubt; 2) [listing 1 of 2 here] yielded a PI in data set [1] of 83%.

On to `c1cnc(O[C@@H]2CN3CCC2C3)cn1` (stereo in doubt; 2) [listing 2 of 2 here], for which the pKi in data set [2] is 5.60.

`CCCCCCOc1nccnc1O[C@@H]1CN2CCC1C2` (stereo in doubt; 12) [listing 2 of 2 here] showed a negative logarithm of the Ki (pKi) in data set [2] of 6.33.

Regarding `CNC(=O)O[C@@H]1CN2CCC1C2` (stereo not given in full), the minimal effective dose in data set [16] is 1 mg/kg. For the same compound, the pKi in [2] is 4.59. In addition, the PI in data set [1] stood at 100%.

Consider `c1cnc(O[C@@H]2CN3CCC2C3)cn1` (stereo in doubt; 1) [listing 2 of 2 here], for which the PI in data set [1] was found to be 96%.

As for `CCCCCCOc1nccnc1O[C@H]1CN2CCC1C2` (stereo not given in full), the pKi in data set [2] was 6.16. This compound also showed a PI in data set [1] of 56%.

Consider `CCCCCCOc1nsnc1C1=CCCN(C)C1`, for which, in data set [1], the PI turned out to be 79%.
